Values quoted from earlier work as cited in paper PMC7998273, “Zein Nanoparticles Improve the Oral Bioavailability of Curcumin in Wistar Rats” (Pharmaceutics, 2021).

Parameters: method as in PMID 17400527
Conditions: orally administered

Structure (SMILES): COc1cc(/C=C/C(=O)CC(=O)/C=C/c2ccc(O)c(OC)c2)ccc1O [CC, curcumin]
- Oral bioavailability: ca. 1%
